Drawing on ChEMBL document CHEMBL1201862, “PubChem BioAssay data set” (2004), this text covers EC50, IC50 and AC50 for 13 molecules.

Assay [1] is described as follows: cells. In kind it is functional, cell-based.
Assay [2] in a line: cells. In kind it is functional, cell-based. This is another data set of the same source.
The target of assay [3] is T1, Mannose-6-phosphate isomerase (Homo sapiens, UniProt P34949).
T1 sequence (P34949 whole entry): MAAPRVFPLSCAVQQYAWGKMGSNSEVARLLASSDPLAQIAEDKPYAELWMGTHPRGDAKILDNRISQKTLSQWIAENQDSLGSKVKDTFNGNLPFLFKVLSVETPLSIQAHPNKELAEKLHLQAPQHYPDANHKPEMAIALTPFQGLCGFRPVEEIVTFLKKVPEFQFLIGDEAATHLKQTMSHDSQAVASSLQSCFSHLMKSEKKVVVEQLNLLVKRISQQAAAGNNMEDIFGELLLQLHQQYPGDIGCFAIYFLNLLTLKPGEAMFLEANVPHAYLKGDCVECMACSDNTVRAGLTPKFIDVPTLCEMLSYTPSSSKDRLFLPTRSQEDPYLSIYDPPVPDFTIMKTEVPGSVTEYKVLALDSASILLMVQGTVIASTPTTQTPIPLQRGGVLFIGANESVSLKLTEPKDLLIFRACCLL
The assay can be described thus: MPI inhibition at elevated mannose 6-phosphate – biochemical, fluorescence intensity, high mannose 6-phosphate, primary screen (AID 1220).

The nature of assay [4]: Luminescence Cell-Based Dose Confirmation HTS to Identify Activators of 5'UTR Stem-Loop Driven Alpha-Synuclein mRNA Translation in H4 Neuroglioblastoma Cells. [Related pubchem assays: 1829 (Project Summary), 1814 (Primary HTS)]. It counts as functional.
Assay [5] can be described thus: Luminescence Cell-Based Dose Response HTS to Identify Activators of Luciferase Translation or Activity in H4 […] Cells. [Related pubchem assays: 1829 (Project Summary), 1814 (Primary HTS)]. In kind it is functional.
In the next assay the test system is H4. The assay can be described thus: Luminescence Cell-Based Dose Response HTS to Identify Activators of 5'UTR Stem-Loop Driven Prion Protein mRNA Translation in H4 Neuroglioblastoma Cells. [Related pubchem assays: 1829 (Project Summary), 1814 (Primary HTS)]. In kind it is functional. Conditions: Homo sapiens.
The nature of assay [6]: Trypanosoma cruzi growth suppression in host cells – NIH3T3 host cells, beta-gal luminescence, confirmation (AID 2044).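 Further: intracellular parasites grown in NIH/3T3 mouse fibroblasts as host cells; luminescent beta-galactosidase reporter signal from transgenic T. cruzi replicating inside host cells; inhibitors lower the luminescence signal.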 In kind it is functional, cell-based.
Assay [7] in a line: NIH3T3 cell viability loss – ATP luminescence, mouse fibroblasts, counter-screen, dose response (AID 2010).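 Further: cells exposed to compound for about 90 hours before reading.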 In kind it is functional, cell-based. Background: A counterscreen serves to expose hits that act by an unwanted route or on another target.
In assay [8] the target is T2, DNA repair protein RAD52 homolog (Homo sapiens, UniProt P43351).
T2 sequence (P43351 whole entry): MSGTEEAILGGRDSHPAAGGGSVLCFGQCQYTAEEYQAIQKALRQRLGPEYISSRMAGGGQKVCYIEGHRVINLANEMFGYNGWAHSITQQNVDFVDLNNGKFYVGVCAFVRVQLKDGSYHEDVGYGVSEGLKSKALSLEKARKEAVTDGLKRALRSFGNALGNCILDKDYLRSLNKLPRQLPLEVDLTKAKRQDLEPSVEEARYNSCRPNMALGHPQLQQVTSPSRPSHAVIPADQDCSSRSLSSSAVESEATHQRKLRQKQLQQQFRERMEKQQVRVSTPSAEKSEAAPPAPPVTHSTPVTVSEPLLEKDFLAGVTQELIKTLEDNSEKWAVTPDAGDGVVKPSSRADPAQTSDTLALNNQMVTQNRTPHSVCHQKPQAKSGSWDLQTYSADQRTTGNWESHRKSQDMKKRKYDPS
In kind it is functional, biochemical.

The nature of assay [9]: toxicity toward HepG2 liver cells – cell-based, plate reader, cherry-pick, antagonist series, cytotoxicity control, dose response (AID 743416). In kind it is functional.
Assay [10] is described as follows: blockers of bursicon-stimulated LGR2 cAMP reporter – cell-based, HEK293, CRE-luciferase reporter, cherry pick, set 2, dose response (AID 743343).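 Further: transfected cells were stimulated with diluted bursicon conditioned medium after compound addition.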 It counts as functional.
A short description of assay [11]: blockade of melanocortin 4 receptor signaling – cell-based, plate reader, cherry pick, counter-screen for LGR2 antagonist project, dose response (AID 743444).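 Further: transfected HEK 293 cells stimulated with alpha-MSH peptide; potency of inhibitors of the alpha-MSH evoked signal.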 It counts as functional.
The nature of assay [12]: A549 cell cytotoxicity, dose response, cytotoxicity control, plate reader, cherry-pick, antagonist series (AID 743412). In kind it is functional, cell-based.
Assay [13] is described as follows: luciferase reporter signal suppression in cells – H4 neuroglioma cells, luminescence, dose response (AID 1990). In kind it is functional, cell-based. A general note: Reporter assays use an easily measured gene product as a stand-in for the process of interest.
The nature of assay [14]: Luminescence Cell-Based Dose Response HTS to Identify Inhibitors of 5'UTR Stem-Loop Driven Prion Protein mRNA Translation in H4 Neuroglioblastoma Cells. [Related pubchem assays: 1827 (Project Summary), 1813 (Primary HTS)]. It counts as functional.
The nature of assay [15]: alpha-synuclein stem-loop luciferase translation blockers – H4 neuroglioma cells, luminescence, confirmation (AID 1988). In kind it is functional, cell-based.
Assay [16] deals with T3, Rac GTPase-activating protein 1 (Homo sapiens, UniProt Q9H0H5).
T3 sequence (Q9H0H5 whole entry): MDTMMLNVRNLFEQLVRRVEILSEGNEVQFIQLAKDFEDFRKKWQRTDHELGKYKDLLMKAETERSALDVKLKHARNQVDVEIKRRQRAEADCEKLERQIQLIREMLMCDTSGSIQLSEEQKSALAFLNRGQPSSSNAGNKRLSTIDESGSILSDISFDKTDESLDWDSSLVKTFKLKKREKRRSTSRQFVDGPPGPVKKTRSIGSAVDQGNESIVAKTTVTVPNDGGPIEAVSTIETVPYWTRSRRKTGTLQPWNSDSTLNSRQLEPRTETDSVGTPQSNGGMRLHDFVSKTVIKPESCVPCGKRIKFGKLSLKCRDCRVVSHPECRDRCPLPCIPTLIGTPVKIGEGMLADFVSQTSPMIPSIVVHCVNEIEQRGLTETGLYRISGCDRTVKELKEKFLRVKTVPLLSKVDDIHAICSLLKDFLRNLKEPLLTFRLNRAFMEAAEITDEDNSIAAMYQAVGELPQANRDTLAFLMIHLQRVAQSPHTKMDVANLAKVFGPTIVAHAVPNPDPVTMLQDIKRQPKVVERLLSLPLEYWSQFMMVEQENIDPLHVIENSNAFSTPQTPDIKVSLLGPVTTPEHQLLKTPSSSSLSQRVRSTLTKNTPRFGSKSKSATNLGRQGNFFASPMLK
Description: blockers of MgcRacGAP-driven Rac1 GTP hydrolysis – biochemical, ADP Hunter fluorescence, primary and confirmatory, confirmation (AID 624330). It counts as functional.

Assay [17] can be described thus: growth inhibition of yeast DHODH-expressing 3D7 parasites – SYBR Green, dry powder samples, dose response (AID 1159570).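 Further: parasite growth measured after 72 hours of compound exposure.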 In kind it is functional, cell-based.
Assay [18] can be described thus: toxicity to human HepG2 hepatoma cells – cell-based, plate reader, dry powder samples, cytotoxicity control, dose response (AID 1159569).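 Further: inhibitor potency with signal falling toward the positive control level.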 In kind it is functional.
The nature of assay [19]: Dd2 malaria parasite growth inhibition potency – SYBR Green, dry powder samples, dose response (AID 1159566).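 Further: potency for growth inhibition with lower SYBR green DNA signal.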 It counts as functional, cell-based.
A short description of assay [20]: growth inhibition of PfATP4-mutant resistant parasites – NITD609-resistant line, SYBR Green, dry powder, dose response (AID 1159571).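 Further: parasites synchronized at ring stage by sorbitol before testing.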 In kind it is functional, cell-based.
Assay [21] in a line: P. falciparum Dd2 growth inhibitors, dose response, SYBR Green, cherry-picked samples (AID 1159567). In kind it is functional, cell-based.
The nature of assay [22]: toxicity to human hepatoma HepG2 cells – cell-based, cherry-picked samples, cytotoxicity control, dose response (AID 1159577). It counts as functional.

The source made the active and inactive calls. Bounds are passed on as bounds.

The EC50 is the concentration that produces a half-maximal response. Regarding `Cc1nc(NCCc2ccccc2)c(C#N)c(C)c1[N+](=O)[O-]`, the EC50 in “cells [1]” and in “cells [2]” was > 350 µM (not active) each time.

As a reminder, the IC50 is the concentration that inhibits the measured activity by half. Consider `CCOc1cc(N2CCOCC2)c(OCC)cc1N=C(S)NCCCOC`, for which the IC50 in assay [3] is listed as > 50 µM (not active).

A word on the AC50: it is the concentration giving half of the maximal activity seen. Regarding `COc1cccc(-c2nc(N3CCN(C)CC3)c3ccccc3n2)c1O`, the EC50 is > 120 µM (not active) in assay [4]; 12.9 µM (active) in assay [5]; > 120 µM (not active) in the assay on H4; < 0.1 µM (active) in assay [6]; > 60 µM (not active) in assay [7]. The AC50 in assay [8] is 3.52 µM (active).

Consider `CCOC(=O)c1sc(NC(=O)Nc2ccccc2F)nc1C`, for which the AC50 in assay [9] was > 52 µM (inactive); in assay [10], 2.48 µM (active); in [11] it was 4.34 µM (active).

On to `C=CCc1c(C)nc2cc(-c3ccc(C)cc3)nn2c1O`, for which the AC50 is 13.6 µM (active) in assay [12], 22.6 µM (active) in assay [9], 26.4 µM (active) in assay [10] and 26.2 µM (active) in assay [11].

On to `CC(=O)OCCc1c2ccccc2c(CCCN(C)C)c2ccccc12`, for which the EC50 in [13], in assay [14] and in assay [15] was > 120 µM (not active) in each case. The AC50 in assay [8] is 11.2 µM (active).

For the molecule `C[C@H]1CN([C@@H](C)CO)C(=O)CCCn2nncc2CO[C@@H]1CN(C)C(=O)Nc1ccc(N2CCN(C)CC2)cc1`, the AC50 in assay [8] is 28.2 µM (active).

As for `CCOc1cc(/C=N/NC(=O)c2c(-c3ccccc3)noc2C)ccc1O`, the concentration for a half-maximal effect (EC50) in the assay “cells [1]” and in the assay “cells [2]” was > 350 µM (not active) in each case. Besides, the IC50 in [16] is 55.5 µM (active).

On to `C/C(=N\NC(=O)CN1CCCCC1)c1ccccc1O`, for which the EC50 in the assay “cells [1]” is 29.7 µM (active); in “cells [2]”, > 350 µM (not active).

Turning to `COc1ccccc1CN1CC2(C1)[C@H](c1ccccc1)[C@@H](CO)N2Cc1ccccc1`, the AC50 in [17] is 0.765 µM (active); in [18] it was 24.9 µM (active); in assay [19], 0.477 µM (active); in assay [20], 0.656 µM (active).

For `COc1cccc(S(=O)(=O)N2CCC3(CC2)CN[C@H](CO)c2[nH]c4cc(OC)ccc4c23)c1`, the AC50 in assay [17] is 4.68 µM (active); in [18] it was 33.2 µM (active); in assay [21], 2.6 µM (active); in assay [19] it was 2.53 µM (active); in assay [20], 2.52 µM (active).

As for `N#C[C@H]1[C@@H](c2ccc(C#Cc3ccccc3F)cc2)[C@@H](CO)N1C(=O)C1CCCC1`, the AC50 in assay [17] was 1.69 µM (active); in assay [18], 54.2 µM (active); in assay [21], 1.84 µM (active); in assay [19], 1.18 µM (active); in assay [22], > 39 µM (inactive); in assay [20] it was 1.88 µM (active).

`OC[C@@H]1[C@H](c2ccc(-c3ccccc3)cc2)[C@H]2CN(CCC(F)(F)F)CCCCN12`: the AC50 is 1.15 µM (active) in [17]; 18 µM (active) in [18]; 2.13 µM (active) in assay [21]; 0.623 µM (active) in assay [19]; 21.7 µM (active) in [22]; 1.29 µM (active) in assay [20].
